Values joined by “and” are separate entries in the source; they are usually repeats but may differ in a detail not shown here. Equal entries are not always repeated.
Legend:
[1] = tested on: OKP-GS (renal cell carcinoma); assay: MTT anti-proliferative assay, OKP-GS; assay type: cell-based; settings: Homo sapiens, 48 h
Protocol: (§1) To determine the selectivity of the synthesized compounds 7–16 toward various cancer cells and normal human cells, the anti-proliferative activity against K562 (chronic myelogenous leukemia), HL-60 (promyelocytic leukemia), MCF-7 (breast adenocarcinoma), HeLa (cervix carcinoma), HepG2 (human liver cancer), A549 (lung carcinoma), OKP-GS (renal cell carcinoma), and normal cells RPMI 1788 (B lymphocyte, the human cell line) was investigated.
(§2) Each in vitro experiment was performed at least in triplicate and the standard deviation of absorbance was less than 10% of the mean. For the in vitro assays, a stock solution (1% DMSO in the appropriate buffer with the tested compound diluted under sonication) was prepared from which several dilutions were made with the appropriate buffer.
(§3) Human cell lines were obtained from the Institute of Cytology, Russian Academy of Sciences. The cell lines studied were maintained in RPMI 1640 medium (AppliChem, Darmstadt, Germany) supplemented with 20% (HL-60, RPMI 1788) fetal calf serum (HyClone, Cramlington, UK), in DMEM (A 549) and Eagle’s MEM (AppliChem) (MCF7, HeLa) with 10% fetal calf serum (HyClone). Cells were cultivated at 37 °C in a humidified atmosphere of 5% CO2. Cellular sensitivities to synthesized compounds and standards were measured with the MTT assay. Cells were plated in triplicate in 96-well plates (10^5 cells/well for suspended cell cultures and 5 × 10^3 cells/well for monolayer cultures); on the same day (suspended cell cultures) or on the following day (monolayer cultures), compounds were added at the appropriate dilutions. Anti-proliferative activity was studied at concentrations 0.1–50.0 µM. The reference drugs were imatinib, sorafenib and nilotinib. Plates were incubated under standard conditions for 48 h. Thereafter, 10 μL MTT (Sigma) in phosphate-buffered saline (5 mg/mL) was added. The plates were incubated for an additional 4 h and 150 μL dimethylsulphoxide (DMSO) was added to dissolve the formazan crystals. The optical density was read on a HALO MPR-95 Microplate Reader (Dynamica Scientific Ltd., Melbourne, Victoria, Australia) at 570 nm. The antiproliferative effects were taken as degrees of inhibition of tumor cells (%). The average of three parallel measurements was calculated for each concentration of test compound. The degree of cell growth suppression was plotted as a function of the logarithm of the concentration. The half maximal inhibitory concentration (IC50) was determined graphically for active compounds.

[2] = tested on: OKP-GS cells; assay: Cell cycle distribution, propidium iodide staining, flow cytometry; assay type: cell-based, human; settings: 72 h
Protocol: To assess changes in the distribution of cells by phases of the cell cycle, we used the method of staining fixed samples with propidium iodide (Calbiochem, USA). Pre-fixation of cells was carried out with 70% ethanol for […]. To exclude the binding of propidium iodide to RNA, the fixed samples were treated with RNAse A at a final concentration of 50 μg/mL (R4875, Sigma, St. Louis, MI, USA) for 15 min at 37 °C [34, 35].
Tumor cells were seeded on a 6-well plate at a density of 200.000 per well for HL-60 and 100.000 per well for OKP-GS. Test compounds 7 and 10 were added at concentrations of 5, 10, and 20 μM for 72 h. Then, the cells were washed from the culture medium by centrifugation at 1000 rpm for 5 min, washed again with PBS, then fixed with ice-cold ethanol during constant shaking and incubated at −20 °C for 24 h. After that, we washed it from alcohol by centrifugation, washed it again with PBS and added a solution containing 100 μg/mL RNase A and 10 μg/mL propidium iodide (PI), incubated for 40 min in the dark and measure it on a Cytomics FC500 Beckman Coulter flow cytometer (FL4 channel for PI). Received data were analyzed with the help of Kaluza 2.0 Software (Beckman Coulter, Brea, CA, USA).

[3] = tested on: MCF-7 (breast adenocarcinoma); assay: MTT anti-proliferative assay, MCF-7; assay type: cell-based; settings: Homo sapiens, MCF7, 48 h
Protocol: as §1, §2, §3

[4] = tested on: K562 (chronic myelogenous leukemia); assay: MTT anti-proliferative assay, K562; assay type: cell-based; settings: Homo sapiens, 48 h
Protocol: (§4) For the in vitro assays, a stock solution (1% DMSO in the appropriate buffer with the tested compound diluted under sonication) was prepared from which several dilutions were made with the appropriate buffer.
(§5) Human cell lines were obtained from the Institute of Cytology, Russian Academy of Sciences. […] Plates were incubated under standard conditions for 48 h.

[5] = tested on: HeLa (cervix carcinoma); assay: MTT anti-proliferative assay, HeLa; assay type: cell-based; settings: Homo sapiens, 48 h
Protocol: as §1, §2, §3

[6] = tested on: A549 (lung carcinoma); assay: MTT anti-proliferative assay, A549; assay type: cell-based; settings: Homo sapiens, 48 h
Protocol: as §1, §2, §3

[7] = target: T1, PDGFRβ (Homo sapiens, UniProt P09619); assay: Kinase Selectivity Profiling System TK-1 / ADP-Glo, PDGFRβ; assay type: biochemical
T1 construct: purchased Promega
Protocol: (§6) At the end, 10 μL of kinase detection reagent was added into the well and incubated for 30 min to produce a luminescence signal.

[8] = tested on: HL-60 (promyelocytic leukemia); assay: MTT anti-proliferative assay, HL-60; assay type: cell-based; settings: Homo sapiens, 48 h
Protocol: as §4, §5

[9] = target: T2, InsR (Homo sapiens, UniProt P06213); assay: Kinase Selectivity Profiling System TK-1 / ADP-Glo, InsR; assay type: biochemical
T2 construct: purchased Promega
Protocol: as §6

[10] = target: T3, HER2 (Homo sapiens, UniProt P04626); assay: Kinase Selectivity Profiling System TK-1 / ADP-Glo, HER2; assay type: biochemical
T3 construct: purchased Promega
Protocol: as §6

[11] = target: T4, Bcr–Abl1 kinase (Homo sapiens, UniProt P00519); assay: Abl1 Kinase Enzyme System / ADP-Glo kinase assay; assay type: biochemical; settings: ATP 50 μM; for inhibition at 0.5 µM: 0.5 µM compound; for inhibition at 10 µM: 10 µM compound
T4 construct: purchased Promega
Protocol: as §6

[12] = target: T5, HER4 (Homo sapiens, UniProt Q15303); assay: Kinase Selectivity Profiling System TK-1 / ADP-Glo, HER4; assay type: biochemical
T5 construct: purchased Promega
Protocol: as §6

[13] = target: T6, IGF1R (Homo sapiens, UniProt P08069); assay: Kinase Selectivity Profiling System TK-1 / ADP-Glo, IGF1R; assay type: biochemical
T6 construct: purchased Promega
Protocol: as §6

[14] = target: T7, EGFR (Homo sapiens, UniProt P00533); assay: Kinase Selectivity Profiling System TK-1 / ADP-Glo, EGFR; assay type: biochemical
T7 construct: purchased Promega
Protocol: as §6

[15] = target: T8, KDR (VEGFR-2) (Homo sapiens, UniProt P35968); assay: Kinase Selectivity Profiling System TK-1 / ADP-Glo, KDR; assay type: biochemical
T8 construct: purchased Promega
Protocol: as §6

T7 sequence (P00533 25-1210): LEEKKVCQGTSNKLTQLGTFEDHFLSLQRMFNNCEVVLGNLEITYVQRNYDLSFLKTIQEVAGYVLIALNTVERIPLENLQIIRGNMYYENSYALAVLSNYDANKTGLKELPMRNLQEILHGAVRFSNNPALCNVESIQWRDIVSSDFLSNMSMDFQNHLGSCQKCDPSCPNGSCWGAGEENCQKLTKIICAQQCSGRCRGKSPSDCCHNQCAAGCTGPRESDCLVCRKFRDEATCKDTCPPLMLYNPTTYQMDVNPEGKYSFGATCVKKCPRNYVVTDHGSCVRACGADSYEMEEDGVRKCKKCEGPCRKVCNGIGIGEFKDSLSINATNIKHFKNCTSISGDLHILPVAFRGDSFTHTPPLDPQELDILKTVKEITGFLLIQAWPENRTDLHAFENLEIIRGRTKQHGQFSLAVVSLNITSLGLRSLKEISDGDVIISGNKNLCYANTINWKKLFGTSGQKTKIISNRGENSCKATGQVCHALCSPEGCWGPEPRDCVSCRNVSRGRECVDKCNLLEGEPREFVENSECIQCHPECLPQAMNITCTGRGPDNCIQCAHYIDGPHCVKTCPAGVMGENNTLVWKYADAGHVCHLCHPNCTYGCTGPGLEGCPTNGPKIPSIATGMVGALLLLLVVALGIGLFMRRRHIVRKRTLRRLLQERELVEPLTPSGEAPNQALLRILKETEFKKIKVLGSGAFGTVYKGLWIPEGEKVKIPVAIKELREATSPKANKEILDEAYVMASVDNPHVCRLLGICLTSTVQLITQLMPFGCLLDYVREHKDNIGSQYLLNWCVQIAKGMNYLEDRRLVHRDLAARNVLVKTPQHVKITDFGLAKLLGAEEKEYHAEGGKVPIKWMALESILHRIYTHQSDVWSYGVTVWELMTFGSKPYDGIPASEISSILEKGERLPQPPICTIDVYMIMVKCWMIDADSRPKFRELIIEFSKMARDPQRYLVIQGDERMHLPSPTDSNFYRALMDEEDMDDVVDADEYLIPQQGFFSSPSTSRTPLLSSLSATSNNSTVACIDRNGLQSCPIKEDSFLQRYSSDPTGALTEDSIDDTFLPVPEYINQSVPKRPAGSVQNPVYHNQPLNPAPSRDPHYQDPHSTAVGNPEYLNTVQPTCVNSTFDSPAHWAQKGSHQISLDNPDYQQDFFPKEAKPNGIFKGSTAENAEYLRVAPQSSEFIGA
T2 sequence (P06213 28-1382): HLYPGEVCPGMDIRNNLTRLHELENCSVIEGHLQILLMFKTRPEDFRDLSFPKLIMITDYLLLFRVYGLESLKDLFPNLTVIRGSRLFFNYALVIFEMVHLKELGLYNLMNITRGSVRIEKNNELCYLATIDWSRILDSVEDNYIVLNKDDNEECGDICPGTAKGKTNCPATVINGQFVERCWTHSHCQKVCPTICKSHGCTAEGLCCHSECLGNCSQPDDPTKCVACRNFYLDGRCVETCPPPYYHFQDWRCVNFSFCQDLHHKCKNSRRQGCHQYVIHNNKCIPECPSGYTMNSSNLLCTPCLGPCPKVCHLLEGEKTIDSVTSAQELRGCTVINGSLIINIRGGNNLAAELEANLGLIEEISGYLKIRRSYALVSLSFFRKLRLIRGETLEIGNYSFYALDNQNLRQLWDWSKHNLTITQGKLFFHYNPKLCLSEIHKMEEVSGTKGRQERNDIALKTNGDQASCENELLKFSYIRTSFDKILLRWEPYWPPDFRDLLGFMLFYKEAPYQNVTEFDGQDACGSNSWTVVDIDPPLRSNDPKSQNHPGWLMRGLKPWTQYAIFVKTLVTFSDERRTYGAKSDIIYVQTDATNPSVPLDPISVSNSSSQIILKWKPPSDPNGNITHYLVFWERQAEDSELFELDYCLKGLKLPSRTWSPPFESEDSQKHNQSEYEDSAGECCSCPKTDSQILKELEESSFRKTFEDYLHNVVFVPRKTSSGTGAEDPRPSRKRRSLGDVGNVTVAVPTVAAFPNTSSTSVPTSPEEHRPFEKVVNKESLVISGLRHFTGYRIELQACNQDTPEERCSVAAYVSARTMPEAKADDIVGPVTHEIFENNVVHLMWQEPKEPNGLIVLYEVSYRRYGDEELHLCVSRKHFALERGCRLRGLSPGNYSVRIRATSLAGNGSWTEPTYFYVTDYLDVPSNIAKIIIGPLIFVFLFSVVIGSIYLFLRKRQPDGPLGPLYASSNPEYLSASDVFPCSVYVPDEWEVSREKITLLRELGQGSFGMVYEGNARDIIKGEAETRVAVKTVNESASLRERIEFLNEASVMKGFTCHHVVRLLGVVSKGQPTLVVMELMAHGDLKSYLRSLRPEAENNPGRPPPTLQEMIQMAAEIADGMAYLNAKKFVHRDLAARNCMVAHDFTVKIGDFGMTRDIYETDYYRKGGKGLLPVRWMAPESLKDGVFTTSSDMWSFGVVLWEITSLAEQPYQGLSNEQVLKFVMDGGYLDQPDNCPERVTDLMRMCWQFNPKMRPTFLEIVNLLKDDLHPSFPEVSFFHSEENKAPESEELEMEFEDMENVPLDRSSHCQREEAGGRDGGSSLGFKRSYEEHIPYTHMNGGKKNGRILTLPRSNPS
T3 sequence (P04626 23-1255): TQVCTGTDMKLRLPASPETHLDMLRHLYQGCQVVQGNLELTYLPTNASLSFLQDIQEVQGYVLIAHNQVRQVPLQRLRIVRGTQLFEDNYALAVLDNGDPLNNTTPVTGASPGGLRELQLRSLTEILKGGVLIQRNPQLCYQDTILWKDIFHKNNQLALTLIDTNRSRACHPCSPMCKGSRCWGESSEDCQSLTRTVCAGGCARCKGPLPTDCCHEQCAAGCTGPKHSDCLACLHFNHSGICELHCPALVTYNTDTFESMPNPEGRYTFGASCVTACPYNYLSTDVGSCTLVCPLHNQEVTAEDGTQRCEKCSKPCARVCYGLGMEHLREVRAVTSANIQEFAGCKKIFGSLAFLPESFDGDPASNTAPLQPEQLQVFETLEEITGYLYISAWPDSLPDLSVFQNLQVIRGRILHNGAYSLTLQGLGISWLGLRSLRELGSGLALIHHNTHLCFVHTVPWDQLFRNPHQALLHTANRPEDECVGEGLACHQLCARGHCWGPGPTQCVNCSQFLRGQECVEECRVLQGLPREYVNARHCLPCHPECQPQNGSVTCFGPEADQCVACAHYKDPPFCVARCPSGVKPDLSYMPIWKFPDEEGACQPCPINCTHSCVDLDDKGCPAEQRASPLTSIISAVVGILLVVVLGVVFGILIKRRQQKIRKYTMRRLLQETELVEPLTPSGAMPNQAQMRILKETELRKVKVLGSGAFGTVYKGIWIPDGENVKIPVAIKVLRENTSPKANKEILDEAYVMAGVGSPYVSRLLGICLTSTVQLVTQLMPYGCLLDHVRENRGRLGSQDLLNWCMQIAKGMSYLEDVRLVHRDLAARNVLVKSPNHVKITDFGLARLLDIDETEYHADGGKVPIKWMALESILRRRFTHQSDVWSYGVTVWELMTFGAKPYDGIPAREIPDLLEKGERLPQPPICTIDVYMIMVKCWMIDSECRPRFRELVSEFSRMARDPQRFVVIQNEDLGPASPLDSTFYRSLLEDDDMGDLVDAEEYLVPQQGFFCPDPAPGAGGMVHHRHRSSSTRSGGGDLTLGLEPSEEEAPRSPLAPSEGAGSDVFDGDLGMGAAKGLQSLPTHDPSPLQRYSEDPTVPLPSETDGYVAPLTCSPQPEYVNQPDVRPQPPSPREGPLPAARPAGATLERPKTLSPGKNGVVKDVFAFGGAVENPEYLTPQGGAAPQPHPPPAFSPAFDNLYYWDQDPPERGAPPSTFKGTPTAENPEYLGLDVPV
T6 sequence (P08069 31-1367): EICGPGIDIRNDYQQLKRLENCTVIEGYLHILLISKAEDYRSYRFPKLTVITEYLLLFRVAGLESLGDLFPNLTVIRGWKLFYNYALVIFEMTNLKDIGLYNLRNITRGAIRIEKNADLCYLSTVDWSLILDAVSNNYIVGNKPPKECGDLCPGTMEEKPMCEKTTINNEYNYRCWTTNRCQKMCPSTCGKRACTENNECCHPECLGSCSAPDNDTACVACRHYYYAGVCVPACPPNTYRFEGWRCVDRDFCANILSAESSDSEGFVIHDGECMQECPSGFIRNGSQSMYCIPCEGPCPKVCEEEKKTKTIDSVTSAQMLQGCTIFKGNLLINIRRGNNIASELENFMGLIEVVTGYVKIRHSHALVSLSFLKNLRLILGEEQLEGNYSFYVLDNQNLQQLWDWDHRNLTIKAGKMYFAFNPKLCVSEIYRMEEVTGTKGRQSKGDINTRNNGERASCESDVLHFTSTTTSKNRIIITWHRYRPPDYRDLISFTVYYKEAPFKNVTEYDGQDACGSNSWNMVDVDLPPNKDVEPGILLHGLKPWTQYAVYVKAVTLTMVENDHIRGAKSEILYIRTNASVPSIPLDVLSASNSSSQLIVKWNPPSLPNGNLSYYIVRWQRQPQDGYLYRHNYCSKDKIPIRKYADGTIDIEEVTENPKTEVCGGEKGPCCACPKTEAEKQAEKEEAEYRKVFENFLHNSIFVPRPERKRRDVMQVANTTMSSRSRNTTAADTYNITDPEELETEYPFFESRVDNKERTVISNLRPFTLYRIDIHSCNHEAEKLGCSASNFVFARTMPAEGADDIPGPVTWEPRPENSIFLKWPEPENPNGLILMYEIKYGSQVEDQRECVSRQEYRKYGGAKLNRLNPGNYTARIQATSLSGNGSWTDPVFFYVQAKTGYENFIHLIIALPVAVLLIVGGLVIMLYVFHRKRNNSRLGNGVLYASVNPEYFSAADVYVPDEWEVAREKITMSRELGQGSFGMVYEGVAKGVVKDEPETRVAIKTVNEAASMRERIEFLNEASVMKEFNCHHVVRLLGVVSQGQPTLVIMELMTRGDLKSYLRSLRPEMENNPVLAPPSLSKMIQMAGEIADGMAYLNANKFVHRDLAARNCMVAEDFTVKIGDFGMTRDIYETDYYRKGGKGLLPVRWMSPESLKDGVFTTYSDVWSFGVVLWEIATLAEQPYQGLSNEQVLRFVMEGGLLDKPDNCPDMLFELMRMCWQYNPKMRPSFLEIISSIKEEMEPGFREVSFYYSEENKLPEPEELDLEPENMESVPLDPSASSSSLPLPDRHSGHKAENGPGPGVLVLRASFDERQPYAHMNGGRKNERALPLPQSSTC

SMILES | IC50 [1] [µM] | IC50 [3] [µM] | IC50 [4] [µM] | IC50 [5] [µM] | IC50 [6] [µM] | inhibition at 1 µM [7] [%] | IC50 [8] [µM] | inhibition at 1 µM [9] [%] | inhibition at 1 µM [10] [%] | inhibition at 0.5 µM [11] [%] | inhibition at 10 µM [11] [%] | inhibition at 1 µM [12] [%] | inhibition at 1 µM [13] [%] | inhibition at 1 µM [14] [%] | inhibition at 1 µM [15] [%] | melting point [°C] | Cells in G1 phase ([2]; 20 μM) [%] | Cells in G2/M phase ([2]; 20 μM) | Cells in S phase ([2]; 20 μM) [%] | Cells in G1 phase ([2]; 5 μM) [%] | also measured
CNC(=O)c1cc(Oc2ccc(NC(=O)Nc3ccc(Cl)c(C(F)(F)F)c3)cc2)ccn1 [Sorafenib, sorafenib, reference compound] | 13.6 ± 1.71 | 13.7 ± 3.08 | 2.9 ± 0.4 | 6.82 ± 2.64 | 6.01 ± 1.27 | – | – | – | – | – | – | – | – | – | – | – | 61.9 | 19.7% | 17.3 | – | –
O=C(Nc1cccc(C(F)(F)F)c1)c1ccc(Cn2cnc3c(Cl)nc(Cl)nc32)cc1 [Compound 7, 4-((2,6-Dichloro-9H-purin-9-yl)methyl)-N-(3-(trifluoromethyl)phenyl)benzamide] | 4.56 ± 1.73 | 12.3 ± 4.07 | 2.27 ± 0.81 | 6.93 ± 1.18 | 26.9 ± 0.64 | 36 to 45 | 1.42 ± 0.54 | 6 | 22 to 26 | 24 | 16 | 0 | 0 | 6 | 11 | – | 51.2 | 29.94% and 29.9% | 17.4 | 60.9 | % Inhibition at 1 µM, PDGFRβ [7]: 30%; Cells in G2/M phase ([2]; 5 μM): 23.53% and 23.5%; Cells in S phase ([2]; 5 μM): 14.2%; Cells in G1 phase ([2]; 10 μM): 55.5%; Cells in G2/M phase ([2]; 10 μM): 26.02% and 26.0%; Cells in S phase ([2]; 10 μM): 17.7%; % Inhibition at 1 µM, HER2 [10]: 22%
COc1nc(Cl)nc2c1ncn2Cc1ccc(C(=O)Nc2cccc(C(F)(F)F)c2)cc1 [Compound 13, 4-((2-Chloro-6-methoxy-9H-purin-9-yl)methyl)-N-(3-(trifluoromethyl)phenyl)benzamide] | 15.5 ± 2.27 | 14.2 ± 2.71 | 29.7 ± 1.87 | 15.4 ± 1.92 | 13 ± 0.67 | 17 | 26.1 ± 1.23 | 0 | 0 | 24 | 21 | 0 | 0 | 29 | 30 | 212 to 214 | – | – | – | – | –
Cc1cn(-c2cc(NC(=O)c3ccc(Cn4cnc5c(Cl)nc(Cl)nc54)cc3)cc(C(F)(F)F)c2)cn1 [Compound 10, 4-((2,6-Dichloro-9H-purin-9-yl)methyl)-N-(3-(4-methyl-1H-imidazol-1-yl)-5-(trifluoromethyl)-phenyl)benzamide] | 24.8 ± 3.25 | 8.1 ± 1.98 | 2.53 ± 0.77 | 6.05 ± 1.03 | 18 ± 0.73 | 39 | 1.52 ± 0.66 | 0 | 11 | 36 | 43 | 0 | 0 | 9 | 16 | – | – | 25.3% | 19.3 | 56.9 | Cells in G2/M phase ([2]; 5 μM): 24.3%; Cells in S phase ([2]; 5 μM): 16.8%; Cells in G1 phase ([2]; 10 μM): 53.3%; Cells in G2/M phase ([2]; 10 μM): 24.2%; Cells in S phase ([2]; 10 μM): 21.5%

Continued by falling IC50 [3], values first:

IC50 [1] [µM] | IC50 [3] [µM] | IC50 [4] [µM] | IC50 [5] [µM] | IC50 [6] [µM] | inhibition at 1 µM [7] [%] | IC50 [8] [µM] | inhibition at 1 µM [9] [%] | inhibition at 1 µM [10] [%] | inhibition at 0.5 µM [11] [%] | inhibition at 10 µM [11] [%] | inhibition at 1 µM [12] [%] | inhibition at 1 µM [13] [%] | inhibition at 1 µM [14] [%] | inhibition at 1 µM [15] [%] | melting point [°C] | SMILES | Cells in G1 phase ([2]; 20 μM) [%] | Cells in G2/M phase ([2]; 20 μM) | Cells in S phase ([2]; 20 μM) [%] | Cells in G1 phase ([2]; 5 μM) [%] | also measured
– | 76.8 ± 3.25 | 30.6 ± 0.94 | – | – | 33 | 7.18 | 0 | 0 | 17 | 28 | 0 | 0 | 0 | 13 | 272 to 274 | Nc1nc(Cl)nc2c1ncn2Cc1ccc(C(=O)Nc2cccc(C(F)(F)F)c2)cc1 [Compound 15, 4-((6-Amino-2-chloro-9H-purin-9-yl)methyl)-N-(3-(trifluoromethyl)phenyl)benzamide] | – | – | – | – | –
10.6 ± 2.88 | 67.4 ± 3.29 | 27.5 ± 1.19 | 33.7 ± 7.49 | 20.1 ± 0.81 | 20 | 48.6 ± 3.02 | 17 | 8 | 18 | 17 | 0 | 0 | 9 | 27 | 160 to 162 | COc1nc(Cl)nc2c1ncn2Cc1ccc(C(=O)Nc2cc(-n3cnc(C)c3)cc(C(F)(F)F)c2)cc1 [Compound 14, 4-((2-Chloro-6-methoxy-9H-purin-9-yl)methyl)-N-(3-(4-methyl-1H-imidazol-1-yl)-5-(trifluoromethyl)phenyl)benzamide] | – | – | – | – | –

Source: publication PMC8657793, “Synthesis, In Vitro and In Silico Anticancer Activity of New 4-Methylbenzamide Derivatives Containing 2,6-Substituted Purines as Potential Protein Kinases Inhibitors” (International Journal of Molecular Sciences, 2021)
